For 26 compounds, IC50 results are on record in patent US12065421B2, “Inhibitors of oplophorus luciferase-derived bioluminescent complexes” (priority 2018, dated 2024).

For the test, the target named is T1, NanoBiT® HiBiT non-luminescent peptide and LgBiT non-luminescent polypeptide (HiBiT/LgBiT bioluminescent complex) (Oplophorus gracilirostris, UniProt Q9GV45, A31E/A60N/A81I/C191F/D135N/E192K/F58L/F95D/G184S/G42A/G62A/G78A/G94A/G98A/H120P/I103V/I117V/I134L/K70R/L176M/L195S/L54V/L73R/L99Q/M102E/N171T/N193K/P142E/Q151K/Q38E/Q45L/T186S/V71I/Y165I).
T1 construct: fused on or other part: N-terminal Met-Val on LgBiT in place of the signal peptide (residues 1-27); The chain is split between residues 184 and 185 into LgBiT and the 11-residue HiBiT peptide (residues 185-195); C-terminal A196 is absent
T1 sequence (Q9GV45 other isoform, or with tags, fused parts or gaps with the stated changes): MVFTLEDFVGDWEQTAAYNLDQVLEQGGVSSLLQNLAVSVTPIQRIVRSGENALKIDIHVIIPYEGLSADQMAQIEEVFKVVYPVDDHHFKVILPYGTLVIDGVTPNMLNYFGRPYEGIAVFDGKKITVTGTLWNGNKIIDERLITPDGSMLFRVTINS
In words: biochemical.
Broadly, the IC50 is the concentration that inhibits the measured activity by half. Low readings indicate higher potency, high ones lower potency. Take `Cc1ccc(NC(=O)c2ccccc2NS(=O)(=O)c2cccc(-c3ccccc3)c2)cc1` [JRW-1248, 2-([1,1′-biphenyl]-3-sulfonamido)-N-(p-tolyl)benzamide]: the IC50 worked out at 280 nM. This lies in the sub-micromolar range.
In the case of `COC(=O)c1cccc(S(=O)(=O)Nc2ccccc2C(=O)Nc2ccc(C)cc2)c1` [JRW-1250, methyl 3-(N-(2-(p-tolylcarbamoyl)phenyl)sulfamoyl)benzoate] it was 540 nM; in that of `CC(=O)Nc1cccc(S(=O)(=O)Nc2ccccc2C(=O)Nc2ccc(C)cc2)c1` [JRW-1253, 2-((3-acetamidophenyl)sulfonamido)-N-(p-tolyl)benzamide], 2300 nM.
As for `Cc1ccc(NC(=O)c2ccccc2NS(=O)(=O)c2cccc(N)c2)cc1` [JRW-1255, 2-((3-aminophenyl)sulfonamido)-N-(p-tolyl)benzamide], the figure is 60 nM; as for `Cc1ccc(NC(=O)c2ccccc2NS(=O)(=O)c2cccc(CO)c2)cc1` [JRW-1261, 2-((3-(hydroxymethyl)phenyl)sulfonamido)-N-(p-tolyl)benzamide], 170 nM; as for `CCCCOc1cccc(S(=O)(=O)Nc2ccccc2C(=O)Nc2ccc(C)cc2)c1` [JRW-1266, 2-((3-butoxyphenyl)sulfonamido)-N-(p-tolyl)benzamide], 1500 nM.
In the case of `Cc1ccc(NC(=O)c2ccccc2NS(=O)(=O)c2cccc(Br)c2)cc1` [JRW-1267, 2-((3-bromophenyl)sulfonamido)-N-(p-tolyl)benzamide] it was 36 nM.
In turn, `CCCCNc1cccc(S(=O)(=O)Nc2ccccc2C(=O)Nc2ccc(C)cc2)c1` [JRW-1269, 2-((3-(butylamino)phenyl)sulfonamido)-N-(p-tolyl)benzamide] came in with an IC50 of 1100 nM.
In the case of `CCCCC#Cc1cccc(S(=O)(=O)Nc2ccccc2C(=O)Nc2ccc(C)cc2)c1` [JRW-1270, 2-((3-(hex-1-yn-1-yl)phenyl)sulfonamido)-N-(p-tolyl)benzamide] it was 1200 nM.
In the case of `Cc1ccc(NC(=O)c2ccccc2NS(=O)(=O)c2cccc(C#CCO)c2)cc1` [JRW-1272, 2-((3-(3-hydroxyprop-1-yn-1-yl)phenyl)sulfonamido)-N-(p-tolyl)benzamide] it was 700 nM; in that of `Cc1ccc(NC(=O)c2ccccc2NS(=O)(=O)c2cccc(CCCO)c2)cc1` [JRW-1275, 2-((3-(3-hydroxypropyl)phenyl)sulfonamido)-N-(p-tolyl)benzamide], 340 nM.
Compound `Cc1ccc(S(=O)(=O)Nc2ccccc2C(=O)Nc2ccccc2Br)cc1` [JRW-1282, N-(2-bromophenyl)-2-((4-methylphenyl)sulfonamido)benzamide] showed an IC50 of 200 nM. This IC50 lies about 1.7-fold lower than the previous one.
Turning to `Cc1ccc(S(=O)(=O)Nc2ccccc2C(=O)Nc2cccc(Br)c2)cc1` [JRW-1283, N-(3-bromophenyl)-2-((4-methylphenyl)sulfonamido)benzamide], inhibition was half-maximal at 46 nM (IC50).
`Cc1ccc(NC(=O)c2ccccc2NS(=O)(=O)c2ccc(C(F)(F)F)cc2)cc1` [JRW-1284, N-(p-tolyl)-2-((4-(trifluoromethyl)phenyl)sulfonamido)benzamide]: the IC50 worked out at 710 nM. Against the preceding compound, the IC50 is about 15-fold higher.
Take `COc1ccc(S(=O)(=O)Nc2ccccc2C(=O)Nc2ccc(C)cc2)cc1` [JRW-1285, 2-((4-methoxyphenyl)sulfonamido)-N-(p-tolyl)benzamide]: the IC50 came out at 360 nM.
As for `Cc1ccc(NC(=O)c2ccccc2NS(=O)(=O)c2ccc(Br)cc2)cc1` [JRW-1287, 2-((4-bromophenyl)sulfonamido)-N-(p-tolyl)benzamide], the figure is 150 nM.
`Cc1ccc(S(=O)(=O)Nc2ccccc2C(=O)Nc2ccc(-c3ccccc3)cc2)cc1` [JRW-1288, N-([1,1′-biphenyl]-4-yl)-2-((4-methylphenyl)sulfonamido)benzamide] came in with a half-maximal inhibitory concentration (IC50) of 110 nM.
As for `COc1ccccc1NC(=O)c1ccccc1NS(=O)(=O)c1ccc(C)cc1` [JRW-1292, N-(2-methoxyphenyl)-2-((4-methylphenyl)sulfonamido)benzamide], the figure is 590 nM; as for `Cc1ccc(S(=O)(=O)Nc2ccccc2C(=O)Nc2cccc(-c3ccccc3)c2)cc1` [JRW-1297, N-([1,1′-biphenyl]-3-yl)-2-((4-methylphenyl)sulfonamido)benzamide], 100 nM.
As for `COc1cccc(NC(=O)c2ccccc2NS(=O)(=O)c2ccc(C)cc2)c1` [JRW-1299, N-(3-methoxyphenyl)-2-((4-methylphenyl)sulfonamido)benzamide], the figure is 90 nM; as for `COc1ccc(NC(=O)c2ccccc2NS(=O)(=O)c2ccc(C)cc2)cc1` [JRW-1300, N-(4-methoxyphenyl)-2-((4-methylphenyl)sulfonamido)benzamide], 43 nM; as for `CCN(c1ccccc1C(=O)Nc1ccc(OC)cc1)S(=O)(=O)c1ccc(C)cc1` [JRW-1325, 2-((N-ethyl-4-methylphenyl)sulfonamido)-N-(4-methoxyphenyl)benzamide], 1300 nM.
`Cc1ccc(NC(=O)c2ccccc2NS(=O)(=O)c2cccc(OC(F)(F)F)c2)cc1` [JRW-1328, N-(p-tolyl)-2-((3-(trifluoromethoxy)phenyl)sulfonamido)benzamide] yielded an IC50 of 1100 nM.
Turning to `Cc1ccc(S(=O)(=O)Nc2cc(F)ccc2C(=O)Nc2cc3ccccc3s2)cc1` [JRW-1346, N-(benzo[b]thiophen-2-yl)-4-fluoro-2-((4-methylphenyl)sulfonamido)benzamide], the IC50 was 14 nM. This IC50 is about 79-fold lower than that of the compound before.
As for `Cc1ccc(S(=O)(=O)Nc2ccc(F)cc2C(=O)Nc2cc3ccccc3s2)cc1` [JRW-1347, N-(benzo[b]thiophen-2-yl)-5-fluoro-2-((4-methylphenyl)sulfonamido)benzamide], the figure is 0.8 nM; as for `Cc1ccc(S(=O)(=O)Nc2ccc(C(F)(F)F)cc2C(=O)Nc2cc3ccccc3s2)cc1` [JRW-1388, N-(benzo[b]thiophen-2-yl)-2-((4-methylphenyl)sulfonamido)-5-(trifluoromethyl)benzamide], 0.58 nM.
